Reference: ChEMBL document CHEMBL3797079, “Synergistic reduction of HIV-1 infectivity by 5-azacytidine and inhibitors of ribonucleotide reductase” (Bioorg Med Chem, 2016)
Active and inactive are the calls of the source. No cut-off for these calls is given here.

Tests used:
[1] = system: Human immunodeficiency virus 1; experiment: Antiviral activity against VSV-G pseudotyped HIV-1 NL4-3 infected in human U373-MAGI cells assessed as reduction in gag level at 5 to 200 nM measured at 6 to 12 hrs post infection by qPCR method; format: functional, organism-based
[2] = system: Human immunodeficiency virus 1; experiment: Antiviral activity against VSV-G pseudotyped HIV-1 NL4-3 infected in human U373-MAGI cells assessed as reduction in gag level at 50 or 100 nM measured at 72 hrs post infection by qPCR method; format: functional, organism-based
[3] = system: Human immunodeficiency virus 1; experiment: Antiviral activity against VSV-G pseudotyped HIV-1 NL4-3 infected in human U373-MAGI cells assessed as reduction in U5-gag level at 5 to 200 nM measured at 6 to 12 hrs post infection by qPCR method; format: functional, organism-based
[4] = system: Human immunodeficiency virus 1; experiment: Antiviral activity against VSV-G pseudotyped HIV-1 NL4-3 infected in human U373-MAGI cells assessed as reduction in U5-gag level at 50 or 100 nM measured at 72 hrs post infection by qPCR method; format: functional, organism-based
[5] = biological target: Human immunodeficiency virus type 1 reverse transcriptase (Human immunodeficiency virus 1) (UniProt Q72547); experiment: Inhibition of HIV-1 reverse transcriptase assessed as inhibition of primer extension using 5' 32P-end-labeled 17-mer DNA/40-mer RNA as primer/template up to 1 mM measured after 5 mins by PAGE analysis

SMILES	Activity [1]	Activity [2]	Activity [3]	Activity [4]	inhibition [5]
Cc1nnc(C(=O)NC(C)(C)c2nc(C(=O)NCc3ccc(F)cc3)c(O)c(=O)n2C)o1	inactive	Active	inactive	Active	
Nc1ncn([C@@H]2O[C@H](COP(=O)(O)OP(=O)(O)OP(=O)(O)O)[C@@H](O)[C@H]2O)c(=O)n1					inactive
